Values quoted from earlier work as cited in patent US20110250260A1, “INHIBITION OF BRAIN ENZYMES INOLVED IN CEREBRAL AMYLOID ANGIOPATHY AND MACULAR DEGENERATION” (Loma Linda University Medical Center, priority 2006, published 2011).
Where a SMILES comes first, the peptide text is derived from it. The star is where a group is joined. Cbz = O=C(OCc1ccccc1)*; CH2F = FC*

Key:
[1] = test system: heart failure in a murine model
[2] = test system: liver function during hepatitis C virus infection; details: human trials
[3] = test system: cell death after ischemia in multiple tissues; details: animal models
[4] = test system: Heme oxidase; details: experimental brain hematomas

Q: With `Cc1c(C(=O)N[C@H](C(=O)NC(CC(=O)O)C(=O)CF)C(C)C)n(C)c2ccccc12` (stereo partly shown) [IDN-1965] as the molecule, how does the mortality ([1]; compared with vehicle-treated mice) read?
A: eliminate the 30% mortality

Q: What about the “reduction of caspase 3-like activity” value ([1]; continuous infusion) of the same molecule?
A: 90%

Q: What about the “reduction of terminal dUTP nick end-labeling-positive myocytes” value ([1]; continuous infusion) of the same molecule?
A: 90%

Q: For `C[C@H](NC(=O)C(=O)Nc1ccccc1C(C)(C)C)C(=O)N[C@@H](CC(=O)O)C(=O)COc1c(F)c(F)cc(F)c1F` [IDN-6556], which preserving liver function [2] is on record?
A: showing promise

Q: What about the side-effects [2] of the same molecule?
A: without exhibiting serious side-effects

Q: For `COC(=O)C[C@H](NC(=O)[C@H](C)NC(=O)[C@@H](NC(=O)OCc1ccccc1)C(C)C)C(=O)CF` [zVAD-FMK] (Cbz-Val-Ala-Asp(OMe)-CH2F), which “reducing cell death after ischemia” value [3] is on record?
A: highly effective

Q: With tin-mesoporphyrin as the molecule, how does the “effects to the brain of heme oxidase inhibition” value [4] read?
A: beneficial effects to the brain
